The text below walks through data of ChEMBL document CHEMBL5113526, “Design, Synthesis, and Biological Evaluation of Androgen Receptor Degrading and Antagonizing Bifunctional Steroidal Analogs for the Treatment of Advanced Prostate Cancer” (J Med Chem, 2022).

For data set [1], the system named is LNCaP. Put plainly: cells. The settings on record: Homo sapiens.
Description: Antiproliferative activity against human LNCAP cells assessed as reduction in cell viability measured after 6 days by CellTiter-Glo assay
Data set [2] in a line: Terminal half life in Sprague-Dawley rat at 10 mg/kg, po measured up to 24 hrs by LC-MS/MS analysis. Type of data set: ADME, organism-based. The conditions noted are these: in vivo, read-out: beta t1/2 (converted).
Data set [3] has as its system LNCaP. As to the kind of experiment: Antiproliferative activity against human LNCAP cells assessed as reduction in cell viability at 10 uM measured after 6 days by CellTiterGlo assay relative to control. The conditions noted are these: time 6 day; for inhibition at 10 µM: Homo sapiens, LNCaP. The format is functional. Background: Cellular ATP, detected with luciferase, serves as a proxy for viable cell number.

In data set [4] the target is T1, Androgen receptor (Homo sapiens, UniProt P10275).
T1 sequence (P10275 whole entry): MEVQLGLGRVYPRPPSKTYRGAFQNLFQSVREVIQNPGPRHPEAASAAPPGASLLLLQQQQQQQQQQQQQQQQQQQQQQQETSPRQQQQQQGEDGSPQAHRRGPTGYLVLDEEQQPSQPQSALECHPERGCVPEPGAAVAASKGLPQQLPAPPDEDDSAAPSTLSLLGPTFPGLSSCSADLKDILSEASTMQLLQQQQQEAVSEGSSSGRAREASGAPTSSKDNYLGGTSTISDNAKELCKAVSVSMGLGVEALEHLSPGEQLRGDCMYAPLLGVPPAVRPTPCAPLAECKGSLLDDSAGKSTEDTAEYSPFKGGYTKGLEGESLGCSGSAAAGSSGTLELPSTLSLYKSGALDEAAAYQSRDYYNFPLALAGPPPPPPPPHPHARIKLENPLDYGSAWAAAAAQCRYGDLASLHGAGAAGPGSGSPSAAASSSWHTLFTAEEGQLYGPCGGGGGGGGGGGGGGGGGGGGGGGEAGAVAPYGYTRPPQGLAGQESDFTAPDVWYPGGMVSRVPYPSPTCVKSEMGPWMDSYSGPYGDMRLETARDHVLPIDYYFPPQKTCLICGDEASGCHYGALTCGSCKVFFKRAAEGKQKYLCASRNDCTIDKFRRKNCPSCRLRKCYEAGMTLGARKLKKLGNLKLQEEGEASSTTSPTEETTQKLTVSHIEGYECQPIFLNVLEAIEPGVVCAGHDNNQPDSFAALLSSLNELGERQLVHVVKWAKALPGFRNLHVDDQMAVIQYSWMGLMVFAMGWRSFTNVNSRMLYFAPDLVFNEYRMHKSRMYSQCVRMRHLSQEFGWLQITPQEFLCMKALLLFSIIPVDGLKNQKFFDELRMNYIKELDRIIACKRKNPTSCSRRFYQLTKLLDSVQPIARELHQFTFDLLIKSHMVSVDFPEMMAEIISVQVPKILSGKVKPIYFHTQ
As to the kind of experiment: Induction of AR degradation in human LNCap cells incubated for 24 hrs by sandwich ELISA analysis. The format is cell-based.

The target in data set [5] is T1, Androgen receptor. Put plainly: Antagonist activity at DHT-induced Androgen receptor transcriptional activity in human HEK293 cells measured after 24 hrs by Steady-Glo reagent based assay. Type of data set: cell-based.
The target in data set [6] is T2, Steroid 17-alpha-hydroxylase/17,20 lyase (Homo sapiens, UniProt P05093).
T2 sequence (P05093 whole entry): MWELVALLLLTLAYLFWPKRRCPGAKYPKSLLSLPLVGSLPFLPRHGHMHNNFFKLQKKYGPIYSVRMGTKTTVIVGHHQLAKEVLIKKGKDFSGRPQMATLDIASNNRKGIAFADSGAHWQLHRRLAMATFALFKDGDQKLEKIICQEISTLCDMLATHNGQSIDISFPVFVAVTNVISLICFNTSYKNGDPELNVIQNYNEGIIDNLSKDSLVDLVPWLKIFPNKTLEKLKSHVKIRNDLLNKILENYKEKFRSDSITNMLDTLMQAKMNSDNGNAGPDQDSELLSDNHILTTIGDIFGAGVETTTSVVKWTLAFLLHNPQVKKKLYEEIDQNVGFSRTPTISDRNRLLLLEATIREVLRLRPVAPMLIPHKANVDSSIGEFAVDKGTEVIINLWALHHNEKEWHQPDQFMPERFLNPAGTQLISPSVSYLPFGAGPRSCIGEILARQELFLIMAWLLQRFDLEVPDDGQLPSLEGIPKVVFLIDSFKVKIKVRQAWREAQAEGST
Put plainly: Inhibition of human recombinant CYP17A1 incubated for 5 mins in presence of NADPH by LC-MS/MS analysis. Type of data set: ADME.

A short description of data set [7]: Tmax in Sprague-Dawley rat at 10 mg/kg, po measured up to 24 hrs by LC-MS/MS analysis. Type of data set: ADME, organism-based. The settings on record: in vivo.
The nature of data set [8]: AUC (0 to t) in Sprague-Dawley rat at 10 mg/kg, po measured up to 24 hrs by LC-MS/MS analysis. Type of data set: ADME, organism-based. More on the design: time < 24 hrs, dose 10 mg/kg, route po. The settings on record: in vivo.
Data set [9] in a line: Cmax in Sprague-Dawley rat at 10 mg/kg, po measured up to 24 hrs by LC-MS/MS analysis. The settings on record: in vivo. Set-up: dose 10 mg/kg, time < 24 hrs, route po. Type of data set: ADME, organism-based.
Data set [10] can be described thus: Inhibition of TP-stimulated andogen-sensitive ventral prostate growth in castrated Sprague-Dawley rat at 20 mg/kg, po administered for 10 days and measured after 24 hrs last post dose by hershberger assay relative to control. The format is functional. The conditions noted are these: time 10 day.
Data set [11] can be described thus: Inhibition of TP-stimulated andogen-sensitive seminal vesicle growth in castrated Sprague-Dawley rat at 20 mg/kg, po administered for 10 days and measured after 24 hrs last post dose by hershberger assay relative to control. Type of data set: functional. The conditions noted are these: […].
Data set [12] addresses Voltage-gated inwardly rectifying potassium channel KCNH2 (Homo sapiens, UniProt Q12809). Put plainly: Inhibition of hERG potassium channel at -80 mV holding potential incubated for 3 mins by automated patch clamp method. Type of data set: toxicity. A general note: The hERG channel carries a current that helps repolarise heart muscle cells.

Chain of Voltage-gated inwardly rectifying potassium channel KCNH2 (Q12809 whole entry): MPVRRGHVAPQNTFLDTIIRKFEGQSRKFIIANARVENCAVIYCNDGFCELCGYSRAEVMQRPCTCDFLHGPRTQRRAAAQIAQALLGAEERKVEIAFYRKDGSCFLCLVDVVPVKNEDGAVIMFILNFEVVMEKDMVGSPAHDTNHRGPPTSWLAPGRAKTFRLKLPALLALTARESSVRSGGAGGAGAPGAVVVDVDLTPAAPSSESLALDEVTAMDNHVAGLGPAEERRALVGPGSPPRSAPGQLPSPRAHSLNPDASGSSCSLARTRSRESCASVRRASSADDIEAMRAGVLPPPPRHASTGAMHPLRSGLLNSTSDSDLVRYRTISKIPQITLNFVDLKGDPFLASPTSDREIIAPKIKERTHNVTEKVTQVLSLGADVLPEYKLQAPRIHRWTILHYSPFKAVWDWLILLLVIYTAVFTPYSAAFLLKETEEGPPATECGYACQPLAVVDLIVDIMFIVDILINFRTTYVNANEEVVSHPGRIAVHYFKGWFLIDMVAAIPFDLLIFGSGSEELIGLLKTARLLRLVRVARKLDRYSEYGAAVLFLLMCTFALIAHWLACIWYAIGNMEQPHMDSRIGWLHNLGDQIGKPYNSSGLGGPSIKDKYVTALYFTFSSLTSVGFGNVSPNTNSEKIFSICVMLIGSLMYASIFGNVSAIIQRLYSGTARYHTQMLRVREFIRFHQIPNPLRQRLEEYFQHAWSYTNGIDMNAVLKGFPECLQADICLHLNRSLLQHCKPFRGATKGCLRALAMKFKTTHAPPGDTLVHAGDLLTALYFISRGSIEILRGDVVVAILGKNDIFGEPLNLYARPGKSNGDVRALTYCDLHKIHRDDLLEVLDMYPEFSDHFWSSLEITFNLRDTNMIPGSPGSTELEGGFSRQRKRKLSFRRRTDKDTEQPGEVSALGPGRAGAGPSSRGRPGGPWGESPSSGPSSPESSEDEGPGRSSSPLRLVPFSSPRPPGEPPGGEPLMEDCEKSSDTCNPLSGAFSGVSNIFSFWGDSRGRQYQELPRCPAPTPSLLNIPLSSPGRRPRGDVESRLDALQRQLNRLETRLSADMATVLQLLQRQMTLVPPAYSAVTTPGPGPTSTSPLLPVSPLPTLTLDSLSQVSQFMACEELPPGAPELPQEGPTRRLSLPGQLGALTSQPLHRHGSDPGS

Turning to `Cc1cn(C2=CC[C@H]3[C@@H]4CC=C5C[C@@H](NC(=O)c6ccnnc6)CC[C@]5(C)[C@H]4CC[C@]23C)cn1`, the IC50 (as a rule, the concentration that inhibits the measured activity by half) in data set [1] was 0.466 µM; in data set [5], 0.244 µM; in data set [6], greater than 3 µM. Besides, the half-life in data set [2] is 3.58 h. Also, the inhibition (commonly the drop in the measured response relative to a control, in per cent) at 10 µM in data set [3] turned out to be 97%. In addition, the DC50 (commonly the midpoint of the concentration-degradation curve) in data set [4] was found to be 2.08 µM. Further, the Tmax (as a rule, the time at which the peak concentration occurs) in data set [7] amounted to 4.67 h. Besides, the AUC(0-t) (in general, exposure summed from dosing to a finite time, without extrapolation to infinity) at 24 h in data set [8] was 5620 ng·h/mL. In addition, the peak level in [9] (Cmax) was 802 ng/mL.
On to `Cc1cncc(C2=CC[C@H]3[C@@H]4CC=C5C[C@@H](NC(=O)c6ccnnc6)CC[C@]5(C)[C@H]4CC[C@]23C)c1`, for which the results for the IC50 in data set [1] and in data set [5] were 0.743 µM and 1.64 µM, respectively. Moreover, in data set [3], the inhibition at 10 µM is 78.2%. The same compound came in with a DC50 in [4] of 11.8 µM.
For the compound `C[C@]12CC[C@H](O)CC1=CC[C@@H]1[C@@H]2CC[C@]2(C)C(n3cnc4ccccc43)=CC[C@@H]12` [GALETERONE], the IC50 in data set [1] stood at 3.55 µM; in data set [6], 0.016 µM. Besides, the inhibition at 10 µM in data set [3] turned out to be 110%.
For `COc1cncc(C2=CC[C@H]3[C@@H]4CC=C5C[C@@H](NC(=O)c6ccnnc6)CC[C@]5(C)[C@H]4CC[C@]23C)c1`, the IC50 in data set [1] came out at 0.646 µM; in data set [5] it was 0.914 µM. Also, in data set [3], the inhibition at 10 µM came out at 73.7%. The same compound had a DC50 in data set [4] of 38.4 µM.
Consider `C[C@]12CC[C@H](NC(=O)c3ccnnc3)CC1=CC[C@@H]1[C@@H]2CC[C@]2(C)C(n3ccnn3)=CC[C@@H]12`, for which the IC50 is 0.672 µM in data set [1], 9.14 µM in data set [5] and greater than 3 µM in data set [6]. Moreover, the DC50 in data set [4] amounted to 4.36 µM.
Turning to `C[C@]12CC[C@H](NC(=O)c3ccnnc3)CC1=CC[C@@H]1[C@@H]2CC[C@]2(C)C(n3cnc4ccccc43)=CC[C@@H]12`, the IC50 in data set [1] is 0.765 µM; in [5], 1.35 µM. In addition, in data set [3], the inhibition at 10 µM was found to be 95.9%. Besides, in [4], the DC50 is 4.78 µM.
For `C[C@]12CC[C@H](NC(=O)c3ccnnc3)CC1=CC[C@@H]1[C@@H]2CC[C@]2(C)C(n3ccnc3)=CC[C@@H]12` the same measures were 0.383 µM, 0.981 µM, 92.4% and 2.76 µM.
As to `CNC(=O)c1ccc(N2C(=S)N(c3ccc(C#N)c(C(F)(F)F)c3)C(=O)C2(C)C)cc1F` [ENZALUTAMIDE], the entries for the “inhibition (INH)” value in data set [3], in data set [10] and in [11] were 68.83%, 67% and 67%, respectively.
`Cc1cn(C2=CC[C@H]3[C@@H]4CC=C5C[C@@H](NC(=O)c6cccnc6)CC[C@]5(C)[C@H]4CC[C@]23C)cn1`: the results for the IC50 in data set [1] and in data set [5] were 0.933 µM and 1.28 µM, respectively. In addition, in data set [3], the inhibition at 10 µM was 103%. It took 3.58 µM to reach half-maximal degradation in data set [4] (DC50).
Take `C[C@]12CC[C@H](O)C[C@@H]1[C@@H](OS(C)(=O)=O)C[C@@H]1[C@@H]2CC[C@]2(C)C(c3cccnc3)=CC[C@@H]12`: half-maximal inhibition in data set [1] (IC50) required 1.79 µM. Besides, the inhibition at 10 µM in data set [3] is 100%.
In data set [1], `C[C@]12CC[C@H](NC(=O)c3ccncn3)CC1=CC[C@@H]1[C@@H]2CC[C@]2(C)C(n3cnc4ccccc43)=CC[C@@H]12` had a 50% inhibitory concentration (IC50) of 1.42 µM. The inhibition at 10 µM in [3] was 101%.
As to `C[C@]12CC[C@H](NC(=O)c3ccncc3)CC1=CC[C@@H]1[C@@H]2CC[C@]2(C)C(n3ccnc3)=CC[C@@H]12`, the results for the IC50 in data set [1], in data set [5] and in data set [12] were 0.317 µM, 0.511 µM and 4.99 µM, respectively. The half-life in data set [2] is 10 h. Moreover, in [3], the inhibition at 10 µM was 97%. For the same compound, the Tmax in [7] was found to be 2 h. The AUC(0-t) at 24 h in [8] came to 28800 ng·h/mL. Moreover, the Cmax – broadly, the highest concentration seen after dosing – in [9] is 4500 ng/mL.
Regarding `C[C@]12CC[C@H](O)CC1=CC[C@@H]1[C@@H]2CC[C@]2(C)C(c3cccnc3)=CC[C@@H]12` [ABIRATERONE], the IC50 in [1] was determined as 2.71 µM; in [6], 0.002 µM. Besides, the inhibition at 10 µM in data set [3] was 84.7%.
The matching figures for `C[C@]12CC[C@H](NC(=O)c3ccnnc3)CC1=CC[C@@H]1[C@@H]2CC[C@]2(C)C(n3cncn3)=CC[C@@H]12`: 0.238 µM, greater than 3 µM and 64.4%.
As to `C[C@]12CC[C@H](NC(=O)c3cccnc3)CC1=CC[C@@H]1[C@@H]2CC[C@]2(C)C(n3cnc4ccccc43)=CC[C@@H]12`, half-maximal inhibition in data set [1] (IC50) was put at 1.6 µM. In data set [3], the inhibition at 10 µM came out at 109%.
For `C[C@]12CC[C@H](NC(=O)c3ccnnc3)CC1=CC[C@@H]1[C@@H]2CC[C@]2(C)C(c3cncnc3)=CC[C@@H]12` the same measures were 0.82 µM and 99.7%.
With `C[C@]12CC[C@H](NC(=O)c3ccncc3)CC1=CC[C@@H]1[C@@H]2CC[C@]2(C)C(n3cnc4ccccc43)=CC[C@@H]12`, the figures for the IC50 in [1] and in data set [5] were 0.763 µM and 1.55 µM, respectively. Also, the inhibition at 10 µM in data set [3] is 104%. For the same compound, it took 3.76 µM to reach half-maximal degradation in [4] (DC50).
Take `C[C@]12CC[C@H](NC(=O)c3cccnc3)CC1=CC[C@@H]1[C@@H]2CC[C@]2(C)C(n3cncn3)=CC[C@@H]12`: the IC50 in [1] came to 1.67 µM. Also, in data set [3], the inhibition at 10 µM is 105%.
